Measurements taken from the NIST ThermoML archive (doi:10.1021/je700260f).

Conditions: Liquid, Vibrating tube method

FC(C(F)(F)F)C(F)(F)F [1,1,1,2,3,3,3-heptafluoropropane]
Conditions	mass density [kg/m3]
293.15 K, 27338 kPa	1533.2
293.15 K, 27374 kPa	1533.1
293.15 K, 27410 kPa	1533.2
293.15 K, 27435 kPa	1533.3
293.15 K, 27481 kPa	1533.5
293.15 K, 27522 kPa	1533.7
293.15 K, 27553 kPa	1533.7
293.15 K, 27589 kPa	1533.9
293.15 K, 27619 kPa	1533.9
293.15 K, 27655 kPa	1534
293.15 K, 27692 kPa	1534.2
293.15 K, 27728 kPa	1534.3
293.15 K, 27759 kPa	1534.5
293.15 K, 27800 kPa	1534.5
293.15 K, 27841 kPa	1534.6
293.15 K, 27871 kPa	1534.8
293.15 K, 27912 kPa	1534.9
293.15 K, 27953 kPa	1534.9
293.15 K, 27984 kPa	1535.1
293.15 K, 28026 kPa	1535.1
293.15 K, 28067 kPa	1535.5
293.15 K, 28097 kPa	1535.4
293.15 K, 28144 kPa	1535.6
293.15 K, 28185 kPa	1535.7
293.15 K, 28216 kPa	1535.9
293.15 K, 28258 kPa	1536
293.15 K, 28300 kPa	1536
293.15 K, 28327 kPa	1536.1
293.15 K, 28369 kPa	1536.4
293.15 K, 28411 kPa	1536.5
293.15 K, 28442 kPa	1536.7
293.15 K, 28484 kPa	1536.7
293.15 K, 28520 kPa	1536.8
293.15 K, 28556 kPa	1536.8
293.15 K, 28588 kPa	1537.1
293.15 K, 28619 kPa	1537.1
293.15 K, 28667 kPa	1537.3
293.15 K, 28709 kPa	1537.3
293.15 K, 28735 kPa	1537.5
293.15 K, 28783 kPa	1537.7
293.15 K, 28823 kPa	1537.8
293.15 K, 28855 kPa	1537.9
293.15 K, 28908 kPa	1538.1
293.15 K, 28956 kPa	1538.2
293.15 K, 28983 kPa	1538.2
293.15 K, 29030 kPa	1538.3
293.15 K, 29072 kPa	1538.5
293.15 K, 29104 kPa	1538.5
293.15 K, 29147 kPa	1538.8
293.15 K, 29179 kPa	1538.8
293.15 K, 29229 kPa	1539.1
293.15 K, 29256 kPa	1539.1
293.15 K, 29289 kPa	1539.1
293.15 K, 29337 kPa	1539.3
293.15 K, 29385 kPa	1539.4
293.15 K, 29417 kPa	1539.6
293.15 K, 29460 kPa	1539.7
293.15 K, 29497 kPa	1539.7
293.15 K, 29528 kPa	1540
293.15 K, 29566 kPa	1540
293.15 K, 29603 kPa	1540.2
293.15 K, 29637 kPa	1540.3
293.15 K, 29675 kPa	1540.4
293.15 K, 29718 kPa	1540.6
293.15 K, 29751 kPa	1540.4
293.15 K, 29782 kPa	1540.6
293.15 K, 29810 kPa	1540.8
293.15 K, 29843 kPa	1540.9
293.15 K, 29870 kPa	1540.9
293.15 K, 29903 kPa	1541.1
293.15 K, 29936 kPa	1541.1
293.15 K, 29969 kPa	1541.3
293.15 K, 29997 kPa	1541.2
293.15 K, 30026 kPa	1541.4
293.15 K, 30054 kPa	1541.5
293.15 K, 30083 kPa	1541.6
293.15 K, 30120 kPa	1541.8
293.15 K, 30153 kPa	1541.8
293.15 K, 30181 kPa	1541.9
293.15 K, 30215 kPa	1542
293.15 K, 30248 kPa	1542.1
293.15 K, 30287 kPa	1542.3
293.15 K, 30316 kPa	1542.4
293.15 K, 30350 kPa	1542.5
293.15 K, 30389 kPa	1542.5
293.15 K, 30423 kPa	1542.7
293.15 K, 30456 kPa	1542.8
293.15 K, 30493 kPa	1542.8
293.15 K, 30522 kPa	1542.9
293.15 K, 30560 kPa	1543.2
293.15 K, 30598 kPa	1543.1
293.15 K, 30626 kPa	1543.2
293.15 K, 30669 kPa	1543.4
293.15 K, 30713 kPa	1543.5
293.15 K, 30742 kPa	1543.5
293.15 K, 30776 kPa	1543.6
293.15 K, 30815 kPa	1543.8
293.15 K, 30853 kPa	1543.9
293.15 K, 30887 kPa	1543.9
293.15 K, 30920 kPa	1544.1
293.15 K, 30958 kPa	1544.3
293.15 K, 30982 kPa	1544.4
293.15 K, 31020 kPa	1544.4
293.15 K, 31063 kPa	1544.6
293.15 K, 31092 kPa	1544.7
293.15 K, 31136 kPa	1544.7
293.15 K, 31164 kPa	1544.7
293.15 K, 31189 kPa	1544.9
293.15 K, 31232 kPa	1545.1
293.15 K, 31270 kPa	1545.2
293.15 K, 31299 kPa	1545.2
293.15 K, 31327 kPa	1545.4
293.15 K, 31356 kPa	1545.3
293.15 K, 31400 kPa	1545.5
293.15 K, 31438 kPa	1545.7
293.15 K, 31468 kPa	1545.7
293.15 K, 31506 kPa	1545.8
293.15 K, 31537 kPa	1546
293.15 K, 31563 kPa	1546.1
293.15 K, 31593 kPa	1546.1
293.15 K, 31636 kPa	1546.3
293.15 K, 31669 kPa	1546.4
293.15 K, 31698 kPa	1546.4
293.15 K, 31742 kPa	1546.6
293.15 K, 31786 kPa	1546.7
293.15 K, 31815 kPa	1546.8
293.15 K, 31854 kPa	1546.8
293.15 K, 31882 kPa	1547
293.15 K, 31919 kPa	1547.1
293.15 K, 31954 kPa	1547.1
293.15 K, 31986 kPa	1547.3
293.15 K, 32022 kPa	1547.3
293.15 K, 32055 kPa	1547.6
293.15 K, 32096 kPa	1547.7
293.15 K, 32136 kPa	1547.8
293.15 K, 32163 kPa	1547.7
293.15 K, 32205 kPa	1548
293.15 K, 32245 kPa	1548.1
293.15 K, 32272 kPa	1548.1
293.15 K, 32309 kPa	1548.2
293.15 K, 32338 kPa	1548.3
293.15 K, 32381 kPa	1548.3
293.15 K, 32418 kPa	1548.5
293.15 K, 32447 kPa	1548.7
293.15 K, 32494 kPa	1548.7
293.15 K, 32531 kPa	1548.9
293.15 K, 32565 kPa	1548.9
293.15 K, 32598 kPa	1549
293.15 K, 32635 kPa	1549.1
293.15 K, 32668 kPa	1549.3
293.15 K, 32711 kPa	1549.4
293.15 K, 33629 kPa	1552.1
293.15 K, 33659 kPa	1552.1
293.15 K, 33704 kPa	1552.3
293.15 K, 33734 kPa	1552.3
293.15 K, 33769 kPa	1552.5
293.15 K, 33809 kPa	1552.5
293.15 K, 33844 kPa	1552.5
293.15 K, 33879 kPa	1552.6
293.15 K, 33925 kPa	1552.9
293.15 K, 33976 kPa	1553.1
293.15 K, 34008 kPa	1553
293.15 K, 34053 kPa	1553.2
293.15 K, 34100 kPa	1553.3
293.15 K, 34131 kPa	1553.5
293.15 K, 34173 kPa	1553.5
293.15 K, 34220 kPa	1553.9
293.15 K, 34257 kPa	1553.9
293.15 K, 34293 kPa	1553.8
293.15 K, 34336 kPa	1554
293.15 K, 34374 kPa	1554.1
293.15 K, 34415 kPa	1554.3
293.15 K, 34442 kPa	1554.3
293.15 K, 34464 kPa	1554.4
293.15 K, 34489 kPa	1554.4
293.15 K, 34511 kPa	1554.7
293.15 K, 34523 kPa	1554.6
293.15 K, 34537 kPa	1554.6
293.15 K, 34546 kPa	1554.6
303.14 K, 1230 kPa	1372.6
303.14 K, 7245 kPa	1416.2
303.14 K, 7273 kPa	1416.3
303.14 K, 7298 kPa	1416.5
303.14 K, 7327 kPa	1416.7
303.14 K, 7356 kPa	1416.8
303.14 K, 7384 kPa	1417.1
303.14 K, 7413 kPa	1417.1
303.14 K, 10852 kPa	1437.1
303.14 K, 10890 kPa	1437.1
303.14 K, 10918 kPa	1437.3
303.14 K, 10989 kPa	1437.6
303.14 K, 12092 kPa	1443.4
303.14 K, 12132 kPa	1443.6
303.14 K, 12163 kPa	1443.8
303.14 K, 12207 kPa	1443.9
303.14 K, 12242 kPa	1444.1
303.14 K, 12284 kPa	1444.2
303.14 K, 12330 kPa	1444.6
303.14 K, 12373 kPa	1444.7
303.14 K, 14583 kPa	1455.6
303.14 K, 14620 kPa	1455.8
303.14 K, 14653 kPa	1455.9
303.14 K, 14687 kPa	1456
303.14 K, 14726 kPa	1456.4
303.14 K, 14755 kPa	1456.5
